Results as given in US12544356B2, “Combination of a chromene compound and a second active agent” (EUCLISES PHARMACEUTICALS, INC., priority 2016, dated 2026).

Assays:
[1] = Plasma concentration of Compound A01 and erlotinib (Example 1); assay type: in vivo, CB17SCID male mice; conditions: for concentration at 2 h / concentration at 6 h: male, CB17SCID, mouse, plasma; for concentration at 2 h: 2 hours post dosing; for concentration at 6 h: 6 hours post dosing
Procedure: (§1) 48 CB17SCID male mice were implanted with 2.5×10^6 HT29 cells. Growth of the tumor was calculated for each animal using a caliper and the equation: V=π×ab^2/6.
(§2) Mouse weight and tumor volume measurements were taken on days 0, 3, 6, 9, 12, 15, 18, 21, and 22 following randomization.

[2] = Intratumoral concentration of Compound A01 and erlotinib (Example 1); assay type: in vivo, CB17SCID male mice; conditions: for Intratumoral concentration of Compound A01 (mean ± SD): HT-29 tumor, day 24
Procedure: as §1, §2

PGE2 = assay: Intratumoral concentration of PGE2 in HT-29 tumors (Example 1); assay type: in vivo, CB17SCID male mice; conditions: HT-29 tumor, day 24
Procedure: as §1, §2

[3] = test system: CT26 xenograft murine colon carcinoma model; assay: CT26 tumor rejection, COX-2 inhibitor with anti-PD1 antibody (Example 2); assay type: in vivo, female BALB/c mice; conditions: up to 50 days following inoculation, COX-2 inhibitor oral daily from day 0, anti-PD-1 200 μg/mouse i.p.
Procedure: CT26.WT cells were cultured under standard conditions. They were harvested with trypsin and washed with PBS. 10^5 cells were injected into the right flank of 6 week old female BALB/c mice in total volume of 100 μL. Tumor size was quantified as the mean of the longest diameter and its perpendicular.

[4] = test system: CT26 murine colon carcinoma cells; assay: CT26 tumor growth, Compound A01 with anti-mPD-L1 (Example 4); assay type: in vivo, Female Envigo BALB/c (BALB/cAnNHsd) mice; conditions: for tumor growth (tumor volume): all doses 10 mg/kg, A01 oral daily, antibodies i.p.
Procedure: CT26 murine colon carcinoma cells were prepared as in Example 2. Female Envigo BALB/c (BALB/cAnNHsd) were inoculated with 5×10^5 CT26 cells suspended in PBS (200 μL) subcutaneously high in the axilla (just under the fore limb). […] The antibodies were administered via i.p. injection on days 3, 6, 9, 12, and 16 following inoculation. Compound A01 was given per oral daily. The mice were euthanized two hours following final dose on Day 16 and samples were prepared for testing.

PGE-2 = assay: Tumoral PGE-2 in HT-29 tumors (Example 5); assay type: in vivo, CB17SCID mice; conditions: HT-29 tumor, day 24
Procedure: HT-29 cells were prepared and implanted by standard methods using the same procedure as Example 1.
42 CB17SCID mice were implanted with 2.5×10^6 HT-29 cells.
Mouse weight and tumor volume measurements were taken on days 0, 3, 6, 9, 12, 15, 18, 21, and 22 following randomization. After 22 days dosing, the blood from each animal was collected at 2 hours and 6 hours post dose.

[5] = test system: CT26.WT murine colon carcinomas; assay: CT26 tumor volume, Compound A01 vs celecoxib (Example 6); assay type: in vivo, Female Harlan Balb/c mice (BALB/cAnNHsd)
Procedure: CT26 murine colon carcinoma cells were prepared as in Example 2. Female Harlan Balb/c mice (BALB/cAnNHsd) were inoculated with 5×10^5 CT26 cells suspended in PBS (200 μL) subcutaneously high in the axilla (just under the fore limb). All mice were sorted into study groups based on caliper measurement estimation of tumor burden on Day 8 when the mean tumor burden for all animals was approximately 79 mm^3 (range of group means, 75-83 mm^3).

[2H]C([2H])([2H])c1cc(Br)cc2c1O[C@H](C(F)(F)F)C(C(=O)O)=C2 [Compound A01, (S)-6-bromo-8-trideuteromethyl-2-(trifluoromethyl)-2H-chromene-3-carboxylic acid]
effect of oral dosing of erlotinib on plasma concentration of Compound A01 ([1]; 2 and 6 hours post dosing): influenced | concentration at 2 h ([1]; A01 1 mg/kg oral): 3610 ± 1350 ng/mL | concentration at 2 h ([1]; A01 10 mg/kg oral): 28400 ± 6020 ng/mL | concentration at 6 h ([1]; A01 1 mg/kg oral): 2250 ± 529 ng/mL | concentration at 6 h ([1]; A01 10 mg/kg oral): 19100 ± 5170 ng/mL | Intratumoral concentration of Compound A01 (mean ± SD) ([2]; A01 1 mg/kg): 1478.5 ± 652.1 µg/g | Intratumoral concentration of Compound A01 (mean ± SD) ([2]; A01 10 mg/kg): 9720 ± 2758.7 µg/g | increase in intratumor level of Compound A01 on addition of erlotinib ([2]; with erlotinib vs Compound A01 in the absence of erlotinib): 1.5 fold | Intratumoral concentration of PGE2 (mean ± SD) (PGE2; A01 1 mg/kg): 14.01 ± 30.3 µg/g | Intratumoral concentration of PGE2 (mean ± SD) (PGE2; A01 10 mg/kg): 0 µg/g | tumor rejection / tumor growth [3]: did not prevent tumor growth | tumor growth compared to vehicle and isotype controls ([4]; CT26, doses 10 mg/kg): slowed | tumor growth (tumor volume) ([4]; Day 3): 0 mm^3 | tumor growth (tumor volume) ([4]; Day 4): 0 mm^3 | tumor growth (tumor volume) ([4]; Day 6): 8 mm^3 | tumor growth (tumor volume) ([4]; Day 9): 97 mm^3 | tumor growth (tumor volume) ([4]; Day 11): 242 mm^3 | tumor growth (tumor volume) ([4]; Day 13): 442 mm^3 | tumor growth (tumor volume) ([4]; Day 16): 759 mm^3 | Mean PGE-2 (tumoral) (PGE-2; 0.1 mg/kg): 203.9 ± 157.9 ng/g | Mean PGE-2 (tumoral) (PGE-2; 0.3 mg/kg): 237.3 ± 119.8 ng/g | Mean PGE-2 (tumoral) (PGE-2; 1 mg/kg): 90.7 ± 105.1 ng/g | Mean PGE-2 (tumoral) (PGE-2; 3 mg/kg): 94.3 ± 78.4 ng/g | Mean PGE-2 (tumoral) (PGE-2; 10 mg/kg): 45.5 ± 73.4 ng/g | CT26 Tumor Volume ([5]; Day 8, 0.3 mg/kg): 80 ± 6 mm^3 | CT26 Tumor Volume ([5]; Day 8, 1 mg/kg): 78 ± 5 mm^3 | CT26 Tumor Volume ([5]; Day 8, 3 mg/kg): 83 ± 3 mm^3 | CT26 Tumor Volume ([5]; Day 8, 10 mg/kg): 79 ± 6 mm^3 | CT26 Tumor Volume ([5]; Day 8, 30 mg/kg): 78 ± 5 mm^3 | CT26 Tumor Volume ([5]; Day 10, 0.3 mg/kg): 139 ± 15 mm^3 | CT26 Tumor Volume ([5]; Day 10, 1 mg/kg): 118 ± 17 mm^3 | CT26 Tumor Volume ([5]; Day 10, 3 mg/kg): 127 ± 11 mm^3 | CT26 Tumor Volume ([5]; Day 10, 10 mg/kg): 121 ± 14 mm^3 | CT26 Tumor Volume ([5]; Day 10, 30 mg/kg): 119 ± 8 mm^3 | CT26 Tumor Volume ([5]; Day 13, 0.3 mg/kg): 460 ± 73 mm^3 | CT26 Tumor Volume ([5]; Day 13, 1 mg/kg): 286 ± 48 mm^3 | CT26 Tumor Volume ([5]; Day 13, 3 mg/kg): 314 ± 49 mm^3 | CT26 Tumor Volume ([5]; Day 13, 10 mg/kg): 257 ± 35 mm^3 | CT26 Tumor Volume ([5]; Day 13, 30 mg/kg): 309 ± 34 mm^3 | CT26 Tumor Volume ([5]; Day 15, 0.3 mg/kg): 694 ± 116 mm^3 | CT26 Tumor Volume ([5]; Day 15, 1 mg/kg): 433 ± 67 mm^3 | CT26 Tumor Volume ([5]; Day 15, 3 mg/kg): 560 ± 79 mm^3 | CT26 Tumor Volume ([5]; Day 15, 10 mg/kg): 590 ± 109 mm^3 | CT26 Tumor Volume ([5]; Day 15, 30 mg/kg): 563 ± 89 mm^3 | CT26 Tumor Volume ([5]; Day 17, 0.3 mg/kg): 1123 ± 198 mm^3 | CT26 Tumor Volume ([5]; Day 17, 1 mg/kg): 689 ± 114 mm^3 | CT26 Tumor Volume ([5]; Day 17, 3 mg/kg): 834 ± 114 mm^3 | CT26 Tumor Volume ([5]; Day 17, 10 mg/kg): 758 ± 130 mm^3 | CT26 Tumor Volume ([5]; Day 17, 30 mg/kg): 897 ± 101 mm^3
